Measured values: patent publication US20250296942A1, “Phosphonate-Based Coordination Complexes and Methods of Preparation and Use Thereof” (University of Puerto Rico, priority 2021, published 2025)

Key:
[1] = Dissolution of 2,2′-BPBPA-based BPCCs in PBS (2,2′-BPBPA released, 299 nm); format: physicochemical; settings: 37° C., 150 rpm, mean n = 2
Procedure: Dissolution experiment. In a 250 mL beaker was tranfer 100 mL of PBS or FaSSGF.
Subsequently, this solution was allowed to reach 37° C. at 150 rpm. Then, individually ˜10.0 mg of powdered 2,2′-BPBPA-based BPCCs were added to the PBS or FaSSGF solution. Aliquots (1 mL) were taken out at different time points (0, 1, 3, 6, 24, 48, and 72 h) and diluted with PBS or FaSSGF in 5 mL volumetric flasks. An aliquot (1 mL) was taken out before adding the 2,2′-BPBPA-based BPCCs to record the first time point (0 h). The dissolution experiments were performed in duplicate for each 2,2′-BPBPA-based BPCC. The absorbance of the 2,2′-BPBPA released from these materials was assessed at 299 (PBS) and 318 (FaSSGF) nm.
The release of 2,2′-BPBPA from the coordination complexes was assessed in physiological conditions (PBS, pH=7.40 and FaSSGF, pH=1.60). The absorbance of the supernatant was measured at the lambda of maximum absorption to determine the quantity of 2,2′-BPBPA release over time in PBS (λmax=299 nm) and FaSSGF (λmax=318 nm) at 37° C. It was observed that the 2,2′-BPBPA-based BPCCs release from 8 to 13% of 2,2′-BPBPA in neutral conditions (FIG. 160A). […] In acidic conditions, these 2,2′-BPBPA-based BPCCs release from 64 to 90% of 2,2′-BPBPA. The 2,2′-BPBPA-Ca (90%) and 2,2′-BPBPA-Zn (84%) presented the highest release of the ligand contrasted with 2,2′-BPBPA-Mg (64%) in FaSSGF (FIG. 160B). In particular, the 2,2′-BPBPA-Ca collapsed almost completely, indicating the possible ability of this material to degrade once in the acid environment of metastatic cancerous cells and be able to release potential cargo drugs.
Dissolution experiment. In a 250 mL beaker was tranfer 100 mL of PBS. Subsequently, this solution was allowed to reach 37° C. at 150 rpm. Then, individually ˜10.0 mg of powdered 2,2′-BPBPA-based BPCCs were added to the PBS solution. Aliquots (1 mL) were taken out at different time points (0, 1, 3, 6, 24, 48, and 72 h) and diluted with PBS in 5 mL volumetric flasks. An aliquot (1 mL) was taken out before adding the 2,2′-BPBPA-based BPCCs to record the first time point (0 h). The absorbance of the 2,2′-BPBPA released from these materials was assessed at 299 nm. The dissolution experiments were performed in duplicate for each 2,2′-BPBPA-based BPCC. The percentage (%) of 2,2′-BPBPA released in PBS from these complexes is illustrated in Table 30.

[2] = Hydroxyapatite (HA) affinity/binding assay of 2,2′-BPBPA and nano-Ca@2,2′-BPBPA; settings: 0.5 mg/mL, HA 20 mg, PBS, duplicate
[3] = tested on: human breast cancer MDA-MB-231 cell line; assay: AlamarBlue cytotoxicity, 2,2′-BPBPA series, MDA-MB-231; format: cell-based; settings: 24, 48, 72 h
Procedure: Cell culture methods. MCF-7 and MDA-MB-231 were incubated using DMEM at 37° C. in 5% CO2. The hFOB 1.19 cell lines were incubated with DMEM: F12 at 34° C. in 5% CO2.
Cell lines were supplemented using 10% FBS and 1% Pen-Strep. The media was replaced twice per week. Cell passages were carried out at 80% confluency.
Cell-based assays. Cell lines were seeded in 96 well plates at a density of 5x 10^3 cells/mL and incubated for 24 h before treatment. Cells were treated with 100 μL of 2,2′-BPBPA (0-400 μM), unloaded and loaded nano-Ca@2,2′-BPBPA (6.3-50 μM) for 24, 48, and 72 h.
Control groups were treated with media (DMEM or DMEM: F12) supplemented with 1% Pen-Strep. Cell viability was determined by employing AlamarBLue@. The media was replaced with 100 μL of 10% AlamarBlue® solution. After 24 h of incubation, the fluorescence was assessed at )max of 560 nm for excitation and 590 nm for emission.
Cell culture methods. MCF-7 and MDA-MB-231 were incubated using DMEM at 37° C. in 5% CO2. The hFOB 1.19 cell lines were incubated with DMEM: F12 at 34° C. in 5% CO2. Cell lines were supplemented using 10% FBS and 1% Pen-Strep. The media was replaced twice times per week. Cell passages were carried out at 80% confluency.
Seeding. […]
AlamarBlue@assay. […] Then, the fluorescence was assessed at 560 nm of excitation and λmax 590 nm of emission. […]

O=P(O)(O)c1ccc(-c2ccc(P(=O)(O)O)cn2)nc1 [2,2′-BPBPA, 2,2′-bipyridine-5,5′-bisphosphonic acid]
% Released (2,2′-BPBPA released in PBS) ([1]; 0 h (aliquot before addition)): 0% | % Released (2,2′-BPBPA released in PBS) ([1]; 1 h): 88% | % Released (2,2′-BPBPA released in PBS) ([1]; 3 h): 90% | % Released (2,2′-BPBPA released in PBS) ([1]; 6 h): 91% | % Released (2,2′-BPBPA released in PBS) ([1]; 24 h): 97% | % Released (2,2′-BPBPA released in PBS) ([1]; 48 h): 97% | % Released (2,2′-BPBPA released in PBS) ([1]; 72 h): 97% | Amount (%) bound to HA, Mean ([2]; 5 d): 82% | Amount (%) bound to HA, Mean ([2]; 6 d): 88% | IC50 [3]: > 200 µM
